Source: patent US20260355191A1, “PAN-RAS INHIBITOR COMPOUND” (ADLAI NORTYE BIOPHARMA CO., LTD., priority 2024, published 2026)

Columns and labels:
SW480 = experiment: In vitro cell proliferation inhibition assay (CellTiter-Glo), SW480; format: cell-based; conditions: SW480, KRAS (p.G12V), 72 h; read-out: IC50, antiproliferative activity
Protocol: (§1) Due to the diversity of RAS mutations, and in order to evaluate the activity of the compounds in different RAS mutant cell lines, we selected cell lines with KRAS^G12D, KRAS^G12V, KRAS^G12c, NRAS^q61L, KRAS^G13D, KRAS^G12R, and KRAS^WT mutations (see the table below for in vitro activity evaluation and screening of the compounds.
(§2) According to the doubling time of different cell lines, different numbers of cells (1000-5000 cells/well) were seeded into 96-well plates containing 180 μL of the corresponding culture medium, and incubated overnight in a cell incubator at 37 °C with 5% C02. On the following day, the test compounds were pre-diluted in the culture medium in a 3-fold serial dilution series, with the highest concentration being […], resulting in 10 concentration gradients in total. Subsequently, 20 μL of culture medium containing the compounds at different concentrations was added to the cells in the 96-well plates, ensuring a final compound concentration of up to 10 μM, with 10 concentrations in 3-fold dilution. After co-incubation of the cells with the compounds for 72 h, the 96-well plates were removed from the incubator and equilibrated at room temperature for 30 min. Then, 25 μL of CellTiter-Glo® Reagent was added to each well and mixed thoroughly, followed by incubation at room temperature for 10 min. Subsequently, 100 μL of the samples was transferred to white 96-well plates (OptiPlate™-96, PerkinElmer), and […] signal values were read using a multifunctional microplate reader (SpectraMax i3x, Molecular Devices). The signal values were then normalized, and curve fitting was performed using a four-parameter logistic regression equation to calculate the half maximal inhibitory concentration (IC50) of the compounds against the cell lines.

MV411 = experiment: In vitro cell proliferation inhibition assay (CellTiter-Glo), MV411; format: cell-based; conditions: MV411, KRAS wild type, 72 h; read-out: IC50, antiproliferative activity
Protocol: as §2

HCT116 = experiment: In vitro cell proliferation inhibition assay (CellTiter-Glo), HCT116; format: cell-based; conditions: HCT116, KRAS (p.G13D), 72 h; read-out: IC50, antiproliferative activity
Protocol: as §1, §2

[1] = target: ternary complex comprising RAS and CypA; KRAS^WT (Homo sapiens, UniProt P01116+P62937); experiment: Ternary complex binding assay (BLI), KRAS WT; conditions: GMPPNP-loaded KRAS^WT, fixed concentration of CypA, pH 7.4, read-out: KD2 (ternary complex equilibrium dissociation constant)
Sequence of ternary complex comprising RAS and CypA; KRAS^WT (P01116 1-188 isoform P01116-2): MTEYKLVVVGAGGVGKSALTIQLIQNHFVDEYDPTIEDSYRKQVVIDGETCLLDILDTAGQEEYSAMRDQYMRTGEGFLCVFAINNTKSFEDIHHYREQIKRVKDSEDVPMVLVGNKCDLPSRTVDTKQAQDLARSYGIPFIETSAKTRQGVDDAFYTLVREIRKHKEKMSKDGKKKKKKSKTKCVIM
Sequence of ternary complex comprising RAS and CypA; KRAS^WT (P62937 whole entry): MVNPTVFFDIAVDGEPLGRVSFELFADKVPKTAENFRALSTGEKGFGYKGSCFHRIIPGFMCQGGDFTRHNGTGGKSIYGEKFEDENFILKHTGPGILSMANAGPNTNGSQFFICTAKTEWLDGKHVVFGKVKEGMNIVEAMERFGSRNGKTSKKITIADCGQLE
Protocol: (§3) To evaluate the ability of the test compounds to induce the formation of a ternary complex comprising RAS and CypA, we employed a Bio-layer Interferometry (BLI) method (Octet R8) to monitor the binding kinetics among the compounds, RAS, and CypA, and to calculate the affinity of the ternary complex. GMPPNP was first incubated with RAS protein to load GMPPNP onto RAS. His-tagged RAS proteins with different mutations were then immobilized on NTA sensors, followed by baseline equilibration for 120 seconds in the assay buffer (20 mM HEPES, pH 7.4, 150 mM NaCl, 5 mM MgCl2, 1 mM TCEP, 5 μM GMPPNP, 0.01% Tween 20). The sensors were subsequently exposed to buffer containing various concentrations of the compounds and a fixed concentration of CypA, and the association phase of ternary complex formation was monitored in real time. Once binding reached a plateau, the sensors were transferred to compound- and CypA-free buffer to measure the dissociation phase. To ensure accuracy, DMSO normalization was performed, buffer composition was optimized to reduce non-specific binding, and both negative and positive controls were employed to verify assay specificity. Data were processed using Octet Analysis Studio 13.0, analyzed using a 1:1 binding model, and the association rate constant (ka), dissociation rate constant (kdis), and equilibrium dissociation constant (KD2) were calculated.

HepG2 = experiment: In vitro cell proliferation inhibition assay (CellTiter-Glo), HepG2; format: cell-based; conditions: HepG2, NRAS (p.Q61L), 72 h; read-out: IC50, antiproliferative activity
Protocol: as §1, §2

PSN1 = experiment: In vitro cell proliferation inhibition assay (CellTiter-Glo), PSN1; format: cell-based; conditions: PSN1, KRAS (p.G12R), 72 h; read-out: IC50, antiproliferative activity
Protocol: as §1, §2

AsPC-1 = experiment: In vitro cell proliferation inhibition assay (CellTiter-Glo), AsPC-1; format: cell-based; conditions: AsPC-1, KRAS (p.G12D), 72 h; read-out: IC50, antiproliferative activity
Protocol: as §1, §2

H358 = experiment: In vitro cell proliferation inhibition assay (CellTiter-Glo), H358; format: cell-based; conditions: H358, KRAS (p.G12C), 72 h; read-out: IC50, antiproliferative activity
Protocol: as §1, §2

[2] = target: ternary complex comprising RAS and CypA; KRAS^G12D (Homo sapiens, UniProt P01116+P62937, G12D); experiment: Ternary complex binding assay (BLI), KRAS G12D; conditions: GMPPNP-loaded KRAS^G12D, fixed concentration of CypA, pH 7.4, read-out: KD2 (ternary complex equilibrium dissociation constant)
Sequence of ternary complex comprising RAS and CypA; KRAS^G12D (P01116 1-188 isoform P01116-2 G12D): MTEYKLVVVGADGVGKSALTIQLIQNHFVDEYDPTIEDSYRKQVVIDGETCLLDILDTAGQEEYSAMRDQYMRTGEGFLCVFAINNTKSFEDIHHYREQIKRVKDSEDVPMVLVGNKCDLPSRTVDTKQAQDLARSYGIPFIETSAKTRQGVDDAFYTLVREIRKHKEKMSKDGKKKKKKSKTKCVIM
Sequence of ternary complex comprising RAS and CypA; KRAS^G12D (P62937 whole entry): as the sequence (P62937 whole entry) above
Protocol: as §3

cyclophilin A (CypA) = target: T1, cyclophilin A (CypA) (Homo sapiens, UniProt P62937); experiment: Binary complex binding assay (BLI); conditions: His-tagged CypA, pH 7.4, 1:1 binding model; for Kd: read-out: KD1 (binary complex equilibrium dissociation constant); for kon: read-out: ka (association rate constant); for koff: read-out: kdis (dissociation rate constant)
T1 construct: purchased R&D 3589-CAB
T1 sequence (P62937 whole entry): as above
Protocol: To evaluate the binding ability of the test compounds to cyclophilin A (CypA), we employed a Bio-layer Interferometry (BLI) method (Octet R8) to monitor the binding kinetics between the compounds and CypA, and to calculate the affinity of the binary complex. His-tagged CypA protein (3589-CAB, R&D) was first immobilized on an NTA sensor, followed by baseline equilibration for 120 seconds in the assay buffer (20 mM HEPES, pH 7.4, 150 mM NaCl, 5 mM MgCl2, 1 mM TCEP, 0.01% Tween 20). The sensor was then exposed to buffer solutions containing different concentrations of the compounds to monitor the association process in real time. When the high-concentration compound binding reached a plateau, the sensor was transferred to compound-free buffer to measure the dissociation process. To ensure data accuracy, DMSO normalization was performed, non-specific binding was minimized by buffer optimization, and negative and positive controls were set to verify assay specificity. Data were processed using Octet Analysis Studio 13.0, analyzed using a 1:1 binding model, and the association rate constant (ka), dissociation rate constant (kdis), and equilibrium dissociation constant (KD1) were calculated.

[3] = target: ternary complex comprising RAS and CypA; KRAS^G12V (Homo sapiens, UniProt P01116+P62937, G12V); experiment: Ternary complex binding assay (BLI), KRAS G12V; conditions: GMPPNP-loaded KRAS^G12V, fixed concentration of CypA, pH 7.4, read-out: KD2 (ternary complex equilibrium dissociation constant)
Sequence of ternary complex comprising RAS and CypA; KRAS^G12V (P01116 1-188 isoform P01116-2 G12V): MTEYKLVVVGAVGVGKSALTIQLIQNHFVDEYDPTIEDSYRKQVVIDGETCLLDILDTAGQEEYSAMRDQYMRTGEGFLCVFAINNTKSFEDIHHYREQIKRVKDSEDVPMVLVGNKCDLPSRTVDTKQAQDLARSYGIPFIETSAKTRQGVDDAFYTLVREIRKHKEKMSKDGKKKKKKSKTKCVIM
Sequence of ternary complex comprising RAS and CypA; KRAS^G12V (P62937 whole entry): as the sequence (P62937 whole entry) above
Protocol: as §3

SMILES | IC50 (SW480) | IC50 (MV411) | IC50 (HCT116) | Kd [1] | IC50 (HepG2) | IC50 (PSN1) | IC50 (AsPC-1) | IC50 (H358) | Kd [2] | Kd (cyclophilin A (CypA)) | kon (cyclophilin A (CypA)) | koff (cyclophilin A (CypA)) | Kd [3]
CCn1c(-c2cc(-c3nc(C4CCN(C5COC5)CC4)n(C)n3)cnc2[C@H](C)OC)c2c3cc(ccc31)-c1csc(n1)C[C@H](NC(=O)[C@H]1[C@H](C)[C@@H]1C)C(=O)N1CCC[C@H](N1)C(=O)OCC(C)(C)C2 (atropisomer, axis not shown) [Compound 4, (1r,2R,3S)—N-((6^3S,4S,Z)-1^1-ethyl-1^2-(2-((S)-1-methoxyethyl)-5-(1-methyl-5-(1-(oxetan-3-yl)piperidin-4-yl)-1H-1,2,4-triazol-3-yl)pyridin-3-yl)-10,10-dimethyl-5,7-dioxo-6^1,6^2,6^3,6^4,6^5,6^6-hexahydro-1^1H-8-oxa-2(4,2)-thiazola-1(5,3)-indola-6(1,3)-pyridazinacycloundecaphane-4-yl)-2,3-dimethylcyclopropane-1-carboxamide] | 520 pM | 350 pM | 2800 pM | 27000 pM | 60 pM | 70 pM | 210 pM | 1 pM | 43000 pM | 810 pM | 150000 M⁻¹ s⁻¹ | 0.00012 s⁻¹ | 25000 pM
CCn1c(-c2cc(-c3nnc(C4CCN(C5CN(C(C)C)C5)CC4)o3)cnc2[C@H](C)OC)c2c3cc(ccc31)-c1csc(n1)C[C@H](NC(=O)[C@H]1C[C@@H]1C)C(=O)N1CCC[C@H](N1)C(=O)OCC(C)(C)C2 (atropisomer, axis not shown) [Compound 7, (1S,2S)—N-((6^3S,4S,Z)-1^1-ethyl-1^2-(5-(5-(1-(1-isopropylazetidin-3-yl)piperidin-4-yl)-1,3,4-oxadiazol-2-yl)-2-((S)-1-methoxyethyl)pyridin-3-yl)-10,10-dimethyl-5,7-dioxo-6^1,6^2,6^3,6^4,6^5,6^6-hexahydro-1^1H-8-oxa-2(4,2)-thiazola-1(5,3)-indola-6(1,3)-pyridazinacycloundecaphane-4-yl)-2-methylcyclopropane-1-carboxamide] | 140 pM | 490 pM | 700 pM | – | 50 pM | 50 pM | 30 pM | 4 pM | 19000 pM | 16000 pM | 230000 M⁻¹ s⁻¹ | 0.0037 s⁻¹ | –
CO[C@@H](C)c1ncc(-c2nnc(C3CCN(C4COC4)CC3)o2)cc1-c1c2c3cc(ccc3n1CC(F)(F)F)-c1csc(n1)C[C@H](NC(=O)[C@H]1C[C@@H]1C)C(=O)N1CCC[C@H](N1)C(=O)OCC(C)(C)C2 (atropisomer, axis not shown) [Compound 5, (1S,2S)—N-((6^3S,4S,Z)-1^2-(2-((S)-1-methoxyethyl)-5-(5-(1-(oxetan-3-yl)piperidin-4-yl)-1,3,4-oxadiazol-2-yl)pyridin-3-yl)-10,10-dimethyl-5,7-dioxo-1^1-(2,2,2-trifluoroethyl)-6^1,6^2,6^3,6^4,6^5,6^6-hexahydro-1^1H-8-oxa-2(4,2)-thiazola-1(5,3)-indola-6(1,3)-pyridazinacycloundecaphane-4-yl)-2-methylcyclopropane-1-carboxamide] | 110 pM | 660 pM | 20 pM | 17000 pM | 660 pM | 30 pM | 80 pM | 34 pM | 27000 pM | 8600 pM | 200000 M⁻¹ s⁻¹ | 0.0017 s⁻¹ | 27000 pM
